Measurements reported in patent publication US5980913A, “Peptides having immunomodulatory activity” (Biochem Pharma, Inc., priority 1994, dated 1999).
Where a SMILES comes first, the peptide text is derived from it.

Tests used:
[1] = tested on: spleen cell subsets (cell surface antigens); assay: In vivo/ex vivo immunophenotyping in the spleen, mice treated 4 consecutive days; design: species or system C57BL/6 mice
Experimental: (§1) C57BL.backslash.6 mice are treated with 0, 50, 100, 200, and 300 mg/kg of drug (in saline) for 4 consecutive days. Blood is taken by cardiac puncture on day 5, and the lymphocytes are isolated from spleen in the following manner:
(§2) The spleen is aseptically removed and mashed by pressing against a steel strainer with a rubber plunger. The cell suspension is separated from the clumps by letting them settle at the bottom of the tube. The cell suspension is then separated on a Lymphocyte M layer and the interface is recovered and resuspended in media.
1. Immunophenotyping (blood and spleen)
Cell immunophenotyping is performed on blood and spleen. The following cell surface antigens are analyzed:
CD4 (T helper/inducer, binds class II-restricted T cells);
CD8 (cytotoxic T cells, CTL adhesion);
MAC-1 (monocyte/macrophage);
NK (natural killer cells);
CD45 (all leukocytes, protein tyrosine phosphatase).

T and B cells in spleen = assay: In vivo/ex vivo mitogenic proliferation of T and B cells (spleen); design: species or system C57BL/6 mice; conditions: FIGS. 1A-1D
Experimental: as §1, §2
2. Mitogenic proliferation of T and B cells (spleen)

NK cells = assay: Functional in vivo/ex vivo NK cell assay, spleen cells, effector:target ratio 100:1; design: species or system mice; conditions: for NK cell assay, % response of CTL: CTL = control
Experimental: as §1, §2
Important in immunosurveillance, NK cells are capable of lysing tumors, virus-infected or embryo-derived cells in vitro spontaneously without prior sensitization. Immunomodulators are evaluated using murine splenocytes and human peripheral blood mononuclear leukocytes.
Spleen cells were used to test for NK activity at a effector:target ratio of 100:1.

NCCCC[C@H](N)C(=O)N[C@@H](CC(N)=O)C(=O)N1CCC[C@H]1C(=O)N[C@@H](Cc1ccc(O)cc1)C(=O)O [PEPTIDE #1, H-Lys-Asn-Pro-Tyr-OH] (H-KNPY-OH)
B cell subset, relative percentage ([1]; 50 mg/kg): 11.60
CD4+ CD8+ cell subset, relative percentage ([1]; 50 mg/kg): 1.10
CD4+ CD8- cell subset, relative percentage ([1]; 50 mg/kg): 38.30
CD4+ CD11+ cell subset, relative percentage ([1]; 50 mg/kg): 0.17
CD4+ CD11- cell subset, relative percentage ([1]; 50 mg/kg): 18.47
CD4+ CD45+ cell subset, relative percentage ([1]; 50 mg/kg): 33.30
CD4+ CD45- cell subset, relative percentage ([1]; 50 mg/kg): 6.10
CD4- CD8+ cell subset, relative percentage ([1]; 50 mg/kg): 16.15
CD4- CD8- cell subset, relative percentage ([1]; 50 mg/kg): 44.45
CD4- CD11+ cell subset, relative percentage ([1]; 50 mg/kg): 1.20
CD4- CD11- cell subset, relative percentage ([1]; 50 mg/kg): 80.17
CD4- CD45+ cell subset, relative percentage ([1]; 50 mg/kg): 58.65
CD4- CD45- cell subset, relative percentage ([1]; 50 mg/kg): 1.95
CD8+ CD45+ cell subset, relative percentage ([1]; 50 mg/kg): 16.90
CD8+ CD45- cell subset, relative percentage ([1]; 50 mg/kg): 0.10
CD8- CD45+ cell subset, relative percentage ([1]; 50 mg/kg): 73.15
CD8- CD45- cell subset, relative percentage ([1]; 50 mg/kg): 9.85
CD45-8 cell subset, relative percentage ([1]; 50 mg/kg): 60.70
CD45- Th1 cell subset, relative percentage ([1]; 50 mg/kg): 39.10
NK+ CD3+ cell subset, relative percentage ([1]; 50 mg/kg): 4.70
NK+ CD3- cell subset, relative percentage ([1]; 50 mg/kg): 7.47
NK- CD3+ cell subset, relative percentage ([1]; 50 mg/kg): 42.80
NK- CD3- cell subset, relative percentage ([1]; 50 mg/kg): 45.10
B cell subset, relative percentage ([1]; 100 mg/kg): 14.97
CD4+ CD8+ cell subset, relative percentage ([1]; 100 mg/kg): 2.40
CD4+ CD8- cell subset, relative percentage ([1]; 100 mg/kg): 32.30
CD4+ CD11+ cell subset, relative percentage ([1]; 100 mg/kg): 0.20
CD4+ CD11- cell subset, relative percentage ([1]; 100 mg/kg): 18.23
CD4+ CD45+ cell subset, relative percentage ([1]; 100 mg/kg): 30.90
CD4+ CD45- cell subset, relative percentage ([1]; 100 mg/kg): 3.80
CD4- CD8+ cell subset, relative percentage ([1]; 100 mg/kg): 12.45
CD4- CD8- cell subset, relative percentage ([1]; 100 mg/kg): 52.85
CD4- CD11+ cell subset, relative percentage ([1]; 100 mg/kg): 1.53
CD4- CD11- cell subset, relative percentage ([1]; 100 mg/kg): 80.07
CD4- CD45+ cell subset, relative percentage ([1]; 100 mg/kg): 61.45
CD4- CD45- cell subset, relative percentage ([1]; 100 mg/kg): 3.85
CD8+ CD45+ cell subset, relative percentage ([1]; 100 mg/kg): 14.25
CD8+ CD45- cell subset, relative percentage ([1]; 100 mg/kg): 0.05
CD8- CD45+ cell subset, relative percentage ([1]; 100 mg/kg): 76.35
CD8- CD45- cell subset, relative percentage ([1]; 100 mg/kg): 9.35
CD45-8 cell subset, relative percentage ([1]; 100 mg/kg): 65.55
CD45- Th1 cell subset, relative percentage ([1]; 100 mg/kg): 34.55
NK+ CD3+ cell subset, relative percentage ([1]; 100 mg/kg): 4.40
NK+ CD3- cell subset, relative percentage ([1]; 100 mg/kg): 7.93
NK- CD3+ cell subset, relative percentage ([1]; 100 mg/kg): 41.50
NK- CD3- cell subset, relative percentage ([1]; 100 mg/kg): 46.20
B cell subset, relative percentage ([1]; 200 mg/kg): 16.33
CD4+ CD8+ cell subset, relative percentage ([1]; 200 mg/kg): 2.27
CD4+ CD8- cell subset, relative percentage ([1]; 200 mg/kg): 29.50
CD4+ CD11+ cell subset, relative percentage ([1]; 200 mg/kg): 0.20
CD4+ CD11- cell subset, relative percentage ([1]; 200 mg/kg): 20.03
CD4+ CD45+ cell subset, relative percentage ([1]; 200 mg/kg): 27.98
CD4+ CD45- cell subset, relative percentage ([1]; 200 mg/kg): 3.77
CD4- CD8+ cell subset, relative percentage ([1]; 200 mg/kg): 12.49
CD4- CD8- cell subset, relative percentage ([1]; 200 mg/kg): 40.94
CD4- CD11+ cell subset, relative percentage ([1]; 200 mg/kg): 1.53
CD4- CD11- cell subset, relative percentage ([1]; 200 mg/kg): 78.27
CD4- CD45+ cell subset, relative percentage ([1]; 200 mg/kg): 43.44
CD4- CD45- cell subset, relative percentage ([1]; 200 mg/kg): 2.31
CD8+ CD45+ cell subset, relative percentage ([1]; 200 mg/kg): 12.36
CD8+ CD45- cell subset, relative percentage ([1]; 200 mg/kg): 0.04
CD8- CD45+ cell subset, relative percentage ([1]; 200 mg/kg): 62.30
CD8- CD45- cell subset, relative percentage ([1]; 200 mg/kg): 7.32
CD45-8 cell subset, relative percentage ([1]; 200 mg/kg): 53.14
CD45- Th1 cell subset, relative percentage ([1]; 200 mg/kg): 31.64
NK+ CD3+ cell subset, relative percentage ([1]; 200 mg/kg): 5.27
NK+ CD3- cell subset, relative percentage ([1]; 200 mg/kg): 8.07
NK- CD3+ cell subset, relative percentage ([1]; 200 mg/kg): 44.33
NK- CD3- cell subset, relative percentage ([1]; 200 mg/kg): 42.33
B cell subset, relative percentage ([1]; 300 mg/kg): 14.60
CD4+ CD8+ cell subset, relative percentage ([1]; 300 mg/kg): 4.33
CD4+ CD8- cell subset, relative percentage ([1]; 300 mg/kg): 34.30
CD4+ CD11+ cell subset, relative percentage ([1]; 300 mg/kg): 0.53
CD4+ CD11- cell subset, relative percentage ([1]; 300 mg/kg): 20.53
CD4+ CD45+ cell subset, relative percentage ([1]; 300 mg/kg): 35.00
CD4+ CD45- cell subset, relative percentage ([1]; 300 mg/kg): 3.67
CD4- CD8+ cell subset, relative percentage ([1]; 300 mg/kg): 16.17
CD4- CD8- cell subset, relative percentage ([1]; 300 mg/kg): 45.20
CD4- CD11+ cell subset, relative percentage ([1]; 300 mg/kg): 2.23
CD4- CD11- cell subset, relative percentage ([1]; 300 mg/kg): 76.67
CD4- CD45+ cell subset, relative percentage ([1]; 300 mg/kg): 57.40
CD4- CD45- cell subset, relative percentage ([1]; 300 mg/kg): 3.97
CD8+ CD45+ cell subset, relative percentage ([1]; 300 mg/kg): 19.77
CD8+ CD45- cell subset, relative percentage ([1]; 300 mg/kg): 0.03
CD8- CD45+ cell subset, relative percentage ([1]; 300 mg/kg): 69.93
CD8- CD45- cell subset, relative percentage ([1]; 300 mg/kg): 10.30
CD45-8 cell subset, relative percentage ([1]; 300 mg/kg): 61.63
CD45- Th1 cell subset, relative percentage ([1]; 300 mg/kg): 38.43
NK+ CD3+ cell subset, relative percentage ([1]; 300 mg/kg): 9.47
NK+ CD3- cell subset, relative percentage ([1]; 300 mg/kg): 10.83
NK- CD3+ cell subset, relative percentage ([1]; 300 mg/kg): 41.10
NK- CD3- cell subset, relative percentage ([1]; 300 mg/kg): 38.63
change of relative percentage of CD8+CD45+ (cytotoxic T cells) subset (in words) ([1]; 200 and 300 mg/kg): significant increase
change of relative percentage of NK+CD3+ (NK cells) subset (in words) ([1]; 200 and 300 mg/kg): significant increase
activation of T and B cells in spleen in vivo/ex vivo (in words) (T and B cells in spleen): activate T and B cells
NK cell assay, % response of IL-2 (NK cells; 50 mg/kg): 48.34%
NK cell assay, Average (NK cells; 50 mg/kg): 2.52
NK cell assay, % response of CTL (NK cells; 50 mg/kg): 112.48%
NK cell assay, % response of IL-2 (NK cells; 100 mg/kg): 69.48%
NK cell assay, Average (NK cells; 100 mg/kg): 3.63
NK cell assay, % response of CTL (NK cells; 100 mg/kg): 161.66%
NK cell assay, % response of IL-2 (NK cells; 200 mg/kg): 53.13%
NK cell assay, Average (NK cells; 200 mg/kg): 2.77
NK cell assay, % response of CTL (NK cells; 200 mg/kg): 123.63%
NK cell assay, % response of IL-2 (NK cells; 300 mg/kg): 58.49%
NK cell assay, Average (NK cells; 300 mg/kg): 3.05
NK cell assay, % response of CTL (NK cells; 300 mg/kg): 136.11%
